Results on two compounds are retold here after patent US7521466B2, “Dipeptide phenyl ethers” (Bexel Pharmaceuticals, Inc., priority 2003, dated 2009).

Data set [1] relates to db/db mice. Kind of data set: Testing hyperglycemia in diabetic db/db mice. Type of data set: in vivo. The settings on record: for improvement of hyperglycemic conditions (blood glucose): db/db mice, 5, 10 and 50 mg/kg body weight orally, 15-21 days; for drop in blood glucose in treated animals compared to control groups: db/db mice, time course experiment following the oral dose (FIGS. 1A, 2A). The method, then:
The hypoglycemic effect of compounds A and B have been examined in spontaneous animal models of diabetes, leptin receptor knockout (db/db mice). The db/db mice have defective leptin receptor and show hyperglycemia with significant weight gain. The compound at a dose of 5, 10 (FIGS. 1C, 2C) and 50 mg/kg body weight (FIGS. lB, 2B) was given orally in these animals for a period of 15-21 days.

Data set [2] relates to ob/ob mice. The data set can be described thus: Lipid profile (TG, VLDL, cholesterol, HDL) in ob/ob mice. The settings on record: 15-day treatment study. The data set is classed as in vivo. The source says: The leptin knock-out ob/ob mice is also considered a good model for insulin resistance and hyperlipidemia. Treatment of these animals with the compounds A and B lowered serum triglycerides (FIG. 4A) and VLDL (FIG. 4B) concentration by >50%.

The test system of data set [3] is ob/ob mice. Kind of data set: Hyperglycemia and OGTT in diabetic obese ob/ob mice. Type of data set: in vivo. The note with it: 50 mg/kg orally, 15-21 days. The method, then: The ob/ob mice is lacking leptin signaling and show hyperglycemia with significant weight gain. The compounds at a dose 50 mg/kg body weight were given orally in these animals for a period of 15-21 days.

Data set [4] deals with ob/ob mice. The data set can be described thus: Body weight gain, food and water intake in obese diabetic ob/ob mice. The data set is classed as in vivo. The note with it: 50 mg/kg orally, 15-21 days. As to the method:
The ob/ob mice are lacking circulating leptin r and show hyperglycemia with significant weight gain. Both the compounds A and B at a dose of 50 mg/kg body weight were given orally in these animals for a period of 15-21 days.

A further data set relates to 3T3-L1 fibroblasts. Kind of data set: Adipogenesis (lipid accumulation, oil red O) in 3T3-L1 fibroblasts. Type of data set: cell-based. The settings on record: 0.1 and 10 uM, 7 days, oil red O staining. The method, then: Rosiglitazone and Compound A at 0.1 and 10 uM concentrations, were treated for 7 days and at the end lipid droplets were stained with oil red O and visualized under microscope.

Data set [5] relates to 3T3-L1 differentiated adipocytes. The data set can be described thus: Basal glucose uptake in 3T3-L1 adipocytes. The data set is classed as cell-based. The settings on record: 72 hr treatment, absence of insulin, control 0.1% DMSO. As to the method: Basal glucose uptake was carried out in 3T3-L1 differentiated adipocytes. After 72 hr of treatment they were challenged with either rosiglitazone or Compound A, then glucose uptake was carried out in absence of insulin. The control was 0.1% DMSO. Cytochalasin B was added in another set of wells to show the effect is receptor mediated.

In a further data set the test system is TNFα. Kind of data set: LPS induced TNFα production in THP-1 monocyte cells. Type of data set: cell-based, Human. The note with it: THP-1 cells, LPS 1 μg/ml, 24 hours, ELISA. The method, then:
(§1) Human THP-1 monocyte cells were cultured and incubated with compounds A and B at different concentrations. Cells were then challenged with lipopolysaccharides (LPS) at a concentration of (1 μg/ml) for 24 hours. Cell supernatants were then analyzed for the presence of TNFα, IL-1β and IL-6 cytokines by antibody directed enzyme-linked immunoassay (FIGS. 8A, 8B, and 8C).
Background: In an ELISA, binding on a coated surface is turned into a signal by an enzyme label.

The test system of another data set is IL-1β. The data set can be described thus: LPS induced IL-1β production in THP-1 monocyte cells. Type of data set: cell-based, Human. The settings on record: THP-1 cells, LPS 1 μg/ml, 24 hours, ELISA. The method, then:
as §1

In a further data set the test system is IL-6. The data set can be described thus: LPS induced IL-6 production in THP-1 monocyte cells. Type of data set: cell-based, Human. The note with it: THP-1 cells, LPS 1 μg/ml, 24 hours, ELISA. As to the method: as §1
For data set [6], the system named is Human THP-1 monocyte cells. The data set can be described thus: Cell viability of THP-1 monocyte cells. The data set is classed as cell-based. The settings on record: THP-1 cells, highest concentration of the compound.
In data set [7] the test system is db/db mice. Kind of data set: Body weight gain, food and water intake in db/db mice. Type of data set: in vivo. The settings on record: 50 mg/kg orally, 15-21 days. As to the method: The db/db mice have defective leptin receptor and show hyperglycemia with significant weight gain. The compound B at a dose of 50 mg/kg body weight was given orally in these animals for a period of 15-21 days.

Structures are written as SMILES. Structures can show the parent of a compound that is named as a salt.

On to `COC(=O)C(Cc1ccc(Oc2ccc(CC3SC(=O)NC3=O)cc2)cc1)NC(=O)C(N)Cc1cnc[nH]1` (centres unmarked) [Compound A, 5-[4-(4-(2-(2-amino-3-imidazol-4-ylpropanamido)-2-methoxycarbonylethyl)phenoxy)benzyl]thiazolidin-2,4-dione dihydrochloride], for which, in the data set on db/db mice [1], the “improvement of hyperglycemic conditions (blood glucose)” value is listed as “significant improvements of hyperglycemic conditions” and the “drop in blood glucose in treated animals compared to control groups” value was determined as 30%. Besides, the “decrease in serum cholesterol concentrations” value with ob/ob mice [2] turned out to be 19%. In the data set on ob/ob mice [3], the “OGTT (oral glucose tolerance)” value is “significant improvement of OGTT” and the “improvement of hyperglycemic conditions” value is “significant improvements of hyperglycemic conditions”. For the same compound, in the data set on ob/ob mice [4], the “body weight gain compared to controls” value is “significant reductions in body weight gain”, the “food intake compared to control groups” value is on record as “improved significantly” and the “water intake compared to control groups” value was “improved significantly”. Also, in the data set with 3T3-L1 fibroblasts, the “adipogenesis (lipid accumulation) compared to rosiglitazone” value is on record as “did not show any adipogenesis”. The “basal glucose uptake compared to control cells” value in data set [5] is reported as “significant increase in basal glucose uptake”. In addition, the “inhibition of TNFα production” value in the data set on TNFα was “inhibit the production of three major pro-inflammatory cytokines in a dose dependent manner”. Also, the “inhibition of IL-1β production” value in the data set on IL-1β is listed as “inhibit the production of three major pro-inflammatory cytokines in a dose dependent manner”. In addition, in the data set on IL-6, the “inhibition of IL-6 production” value was “inhibit the production of three major pro-inflammatory cytokines in a dose dependent manner”. Moreover, in data set [6], the cell viability result is recorded as “No significant change in cell viability”.

Consider `COC(=O)C(Cc1ccc(Oc2ccc(C=C3SC(=O)NC3=O)cc2)cc1)NC(=O)C(N)Cc1c[nH]cn1.Cl.Cl` (centres unmarked) [Compound B, 5-[4-(4-(2-(2-Amino-3-imidazol-4-ylpropanamido)-2-methoxycarbonylethyl)phenoxy)benzylidene]thiazolidin-2,4-dione dihydrochloride], for which, in the data set with db/db mice [1], the “improvement of hyperglycemic conditions (blood glucose)” value is reported as “significant improvements of hyperglycemic conditions” and the “drop in blood glucose in treated animals compared to control groups” value came out at 24%. In addition, in the data set on db/db mice [7], the “body weight gain compared to controls” value is “significant reductions in body weight gain”, the “food intake compared to control groups” value was “improved significantly” and the “water intake compared to control groups” value is “improved significantly”. The “decrease in serum cholesterol concentrations” value in the data set on ob/ob mice [2] is given as 19%. In the data set on ob/ob mice [3], the “OGTT (oral glucose tolerance)” value is “significant improvement of OGTT” and the “improvement of hyperglycemic conditions” value is recorded as “significant improvements of hyperglycemic conditions”. Further, in the data set on ob/ob mice [4], the “body weight gain compared to controls” value was “significant reductions in body weight gain”, the “food intake compared to control groups” value is given as “improved significantly” and the “water intake compared to control groups” value was “improved significantly”. In addition, the “inhibition of TNFα production” value with TNFα is on record as “inhibit the production of three major pro-inflammatory cytokines in a dose dependent manner”. The “inhibition of IL-1β production” value in the data set with IL-1β is reported as “inhibit the production of three major pro-inflammatory cytokines in a dose dependent manner”. Also, the “inhibition of IL-6 production” value with IL-6 is “inhibit the production of three major pro-inflammatory cytokines in a dose dependent manner”. Besides, the cell viability result in data set [6] is recorded as “No significant change in cell viability”.
